Data reported in patent publication US20230123334A1, “AMINO LIPID COMPOUND, PREPARATION METHOD THEREFOR, AND APPLICATION THEREOF” (SHENZHEN SHENXIN BIOTECHNOLOGY CO., LTD., priority 2020, published 2023).

Test system: HEK293 cells
Assay: Preliminary screening as DNA vectors, GFP transfection of HEK293 cells
Type: cell-based
Conditions: amino lipid/DOPE liposome with 75 ng plasmid DNA (psin-EGFP-IRES-Puro); number of GFP-expressing cells divided by total nuclei (Hoechst)
How it was run: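 HEK293 cells in DMEM/10% FBS transfected with 75 ng EGFP plasmid per well complexed with amino lipid/DOPE liposomes in pH 5.6 sodium acetate. Hoechst nuclear stain added 20-24 h post-transfection, then cells cultured another 20-24 h. Confocal imaging gives GFP-positive cells as % of total nuclei.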

SMILES | Absolute DNA transfection efficiency in HEK293 cells [%]
CCCCCCCCCCCCCCCCCCNc1nc(NCCN2CCOCC2)nc(SCCCCCCCC)n1 [S8N18 D2] | 2.6
CCCCCCCCCCCCCCCCSc1nc(NCC2CCN(C)CC2)nc(SCCCCCCC)n1 [S7S16 D10] | 22.2
CCCCCCCCCCCCCCCCCCNc1nc(NCCN2CCN(C)CC2)nc(SCCCCCCCCCCC)n1 [S11N18 D5] | 9.3
CCCCCCCCCSc1nc(NCCCCCCC)nc(NCCCN2CCN(C)CC2)n1 [S9N7 D9] | 12.1
CCCCCCCCCCCCCCSc1nc(NCCCCCCC)nc(NCC2CCN(C)CC2)n1 [S14N7 D10] | 34.6
CCCCCCCCCCCCCCCNc1nc(NCCCN2CCN(C)CC2)nc(SCCCCCCCCCC)n1 [S10N15 D9] | 4.1
CCCCCCCCCCCCCCCCCCSc1nc(NCCCCCC)nc(NCCCN2CCN(C)CC2)n1 [S18N6 D9] | 11.0
CCCCCCCCCCCCCCCCCCNc1nc(NCCCN2CCN(C)CC2)nc(SCCCCCCCCCCCC)n1 [S12N18 D9] | 0.2
CCCCCCCCCCCCCCCCCCSc1nc(NCCCCCCC)nc(NCCN2CCCC2)n1 [S18N7 D3] | 15.6
CCCCCCCCCCCCCCCCNc1nc(NCCN2CCOCC2)nc(SCCCCCCCC)n1 [S8N16 D2] | 2.9
CCCCCCCCCCCSc1nc(NCCCCCC)nc(NCCN2CCOCC2)n1 [S11N6 D2] | 19.0
CCCCCCCCCSc1nc(NCCCCCCCC)nc(NCCN2CCCC2)n1 [S9N8 D3] | 37.6
CCCCCCCCCCCCCCCCCCNc1nc(NCCCN2CCN(C)CC2)nc(SCCCCCCCCC)n1 [S9N18 D9] | 15.8
CCCCCCCCCCCCNc1nc(NCCN2CCN(C)CC2)nc(SCCCCCCCCCC)n1 [S10N12 D5] | 2.6
CCCCCCCCCSc1nc(NCCCCCCCC)nc(NCCN2CCN(C)CC2)n1 [S9N8 D5] | 30.3
CCCCCCCCCCCCCCCCCCNc1nc(NCCN2CCOCC2)nc(SCCCCCCCCCCC)n1 [S11N18 D2] | 2.8
CCCCCCCCCCCCCNc1nc(NCCCN2CCOCC2)nc(SCCCCCCCCC)n1 [S9N13 D8] | 11.3
CCCCCCCCCCCCCCCCSc1nc(NCCCN(C)C)nc(SCCCCCC)n1 [S6S16 D6] | 0.4
CCCCCCCCCCCCCCCCSc1nc(NCCN2CCN(C)CC2)nc(SCCCCCC)n1 [S6S16 D5] | 15.2
CCCCCCCCCCCCCCCCCCNc1nc(NCCN(CC)CC)nc(SCCCCCCCCCCCC)n1 [S12N18 D7] | 0.3
CCCCCCCCCSc1nc(NCC2CCN(C)CC2)nc(SCCCCCCC)n1 [S7S9 D10] | 16.3
CCCCCCCCCCSc1nc(NCCCN2CCOCC2)nc(SCCCCCC)n1 [S6S10 D8] | 0.0
CCCCCCCCCCCCCCCCCCSc1nc(NCCCCCCCCCCCCCCC)nc(NCCN2CCCC2)n1 [S18N15 D3] | 0.2
CCCCCCCCCCCCCCCCCCNc1nc(NCCN2CCOCC2)nc(SCCCCCCC)n1 [S7N18 D2] | 16.6

SMILES | Absolute DNA transfection efficiency in HEK293 cells [%]
CCCCCCCCCCCCNc1nc(NCCN(C)C)nc(SCCCCCCC)n1 [S7N12 D1] | 18.2
CCCCCCCCCCCCCCCCCCNc1nc(NCCN(C)C)nc(SCCCCCCCCCCCCCCC)n1 [S15N18 D1] | 0.6
CCCCCCCCCCCCCCCCCCNc1nc(NCCN(CC)CC)nc(SCCCCCCCCCC)n1 [S10N18 D7] | 4.0
CCCCCCCCCCCNc1nc(NCCN(C)C)nc(SCCCCCCCCCCC)n1 [S11N11 D1] | 17.8
CCCCCCCCCSc1nc(NCCCCCCCC)nc(NCCCN2CCN(C)CC2)n1 [S9N8 D9] | 25.7
CCCCCCCCCCCCCCCSc1nc(NCCN2CCCCC2)nc(N(CCCCCCCCCCCC)CCCCCCCCCCCC)n1 [S15^2N12 D4] | 0.0
CCCCCCCCCCCCCCCCCCNc1nc(NCCN(CC)CC)nc(SCCCCCCCCCCCCCCCCCC)n1 [S18N18 D7] | 0.0
CCCCCCCCCCCCCCSc1nc(NCCCCCC)nc(NCCN(C)C)n1 [S14N6 D1] | 24.1
CCCCCCCSc1nc(NCCN(C)C)nc(SCCCCCCC)n1 [S7S7 D1] | 7.9
CCCCCCCCCCSc1nc(NCCN(CC)CC)nc(SCCCCCC)n1 [S6S10 D7] | 7.7
CCCCCCCCCCCNc1nc(NCCN2CCCCC2)nc(SCCCCCC)n1 [S6N11 D4] | 3.3
CCCCCCCCCCCCCCCCNc1nc(NCCN2CCOCC2)nc(SCCCCCCCCCCC)n1 [S11N16 D2] | 3.5
CCCCCCCCCCCSc1nc(NCCCCCCCC)nc(NCCN(C)C)n1 [S11N8 D1] | 19.8
CCCCCCCCCCCCCCSc1nc(NCCCCCCC)nc(NCCN(CC)CC)n1 [S14N7 D7] | 10.5
CCCCCCCCCCCNc1nc(NCCCN(C)C)nc(SCCCCCCC)n1 [S7N11 D6] | 42.1
CCCCCCCCCCCCCNc1nc(NCCN(C)C)nc(SCCCCCCCCCCCC)n1 [S12N13 D1] | 1.4
CCCCCCCCSc1nc(NCCCN2CCN(C)CC2)nc(SCCCCCCCC)n1 [S8S8 D9] | 12.1
CCCCCCCCCCCCCCCCNc1nc(NCCCN2CCN(C)CC2)nc(SCCCCCCCCCCCC)n1 [S12N16 D9] | 0.4
CCCCCCCCSc1nc(NCCN2CCN(C)CC2)nc(SCCCCCCC)n1 [S7S8 D5] | 11.2
CCCCCCCCCCCCCCCCCCNc1nc(NCCCN2CCN(C)CC2)nc(SCCCCCC)n1 [S6N18 D9] | 14.1
CCCCCCCCCCCCSc1nc(NCCCCCCCC)nc(NCCN2CCOCC2)n1 [S12N8 D2] | 0.1
CCCCCCCCCCCCCCSc1nc(NCCCCCCCCC)nc(NCCN(C)C)n1 [S14N9 D1] | 20.8
CCCCCCCCCCCSc1nc(NCCCCCCC)nc(NCCN2CCCCC2)n1 [S11N7 D4] | 4.6
CCCCCCCCCCCCSc1nc(NCCN2CCN(C)CC2)nc(SCCCCCC)n1 [S6S12 D5] | 28.8

SMILES | Absolute DNA transfection efficiency in HEK293 cells [%]
CCCCCCCCCCCCCCCCCCSc1nc(NCCCCCCCCC)nc(NCCCN2CCN(C)CC2)n1 [S18N9 D9] | 0.0
CCCCCCCCNc1nc(NCCN2CCCC2)nc(SCCCCCC)n1 [S6N8 D3] | 2.0
CCCCCCCCCCCCCCCCCCNc1nc(NCC2CCN(C)CC2)nc(SCCCCCCCCCCCCCCCCCC)n1 [S18N18 D10] | 0.0
CCCCCCCCCCCCCCCNc1nc(NCCN2CCOCC2)nc(SCCCCCC)n1 [S6N15 D2] | 2.0
CCCCCCCCCCCCCCCCSc1nc(NCCCCCCCCCCC)nc(NCCCN2CCN(C)CC2)n1 [S16N11 D9] | 9.6
CCCCCCCCCCCCNc1nc(NCCCN(C)C)nc(SCCCCCCCC)n1 [S8N12 D6] | 78.3
CCCCCCCCCSc1nc(NCCN2CCN(C)CC2)nc(SCCCCCC)n1 [S6S9 D5] | 13.7
CCCCCCCCCCCCCCSc1nc(NCCCCCCCCCCCCC)nc(NCC2CCN(C)CC2)n1 [S14N13 D10] | 2.2
CCCCCCCCSc1nc(NCCCCCCC)nc(NCCN2CCN(C)CC2)n1 [S8N7 D5] | 3.6
CCCCCCCCCCCCNc1nc(NCCN2CCCC2)nc(SCCCCCCCCCC)n1 [S10N12 D3] | 7.2
CCCCCCCCCNc1nc(NCCN(C)C)nc(SCCCCCCCCC)n1 [S9N9 D1] | 35.3
CCCCCCCCCCCCCCSc1nc(NCCCN2CCOCC2)nc(N(CCCCCCCCCCCC)CCCCCCCCCCCC)n1 [S14^2N12 D8] | 0.0
CCCCCCCCCCCCCCCSc1nc(NCCCCCCC)nc(NCCCN(C)C)n1 [S15N7 D6] | 32.1
CCCCCCCCSc1nc(NCCN2CCCC2)nc(SCCCCCCCC)n1 [S8S8 D3] | 10.4
CCCCCCCCCCCCCCCCSc1nc(NCCN2CCCCC2)nc(N(CCCCCCCCCCCC)CCCCCCCCCCCC)n1 [S16^2N12 D4] | 0.1
CCCCCCCCCNc1nc(NCCN(CC)CC)nc(SCCCCCCC)n1 [S7N9 D7] | 33.2
CCCCCCCCSc1nc(NCCCCCCC)nc(NCCCN2CCOCC2)n1 [S8N7 D8] | 0.8
CCCCCCCCCCCCCCCSc1nc(NCCCCCCCCCCCCC)nc(NCCCN(C)C)n1 [S15N13 D6] | 2.7
CCCCCCCCCCCCSc1nc(NCCN2CCCCC2)nc(SCCCCCCC)n1 [S7S12 D4] | 9.5
CCCCCCCCCCCCCCCCCCSc1nc(NCCCCCCCCCCC)nc(NCCCN2CCN(C)CC2)n1 [S18N11 D9] | 2.9
CCCCCCCCCCCCCCCSc1nc(NCCCCCCC)nc(NCCN(CC)CC)n1 [S15N7 D7] | 13.3
CCCCCCCCCCCCCCCCNc1nc(NCCN(CC)CC)nc(SCCCCCCCCCCCCCCC)n1 [S15N16 D7] | 0.4
